Source: patent publication US7772263B2, “Compounds for the treatment of inflammatory disorders” (Schering Corporation, priority 2006, dated 2010)

Target: T1, purified catalytic domain of recombinant human TACE (rhTACEc) (Homo sapiens, UniProt P78536, N452Q/S266A)
T1 construct: rhTACEc, Residue 215 to 477 with two mutation (S266A and N4520) and a 6×His tail; 6xHis (C); made in house; host or cells: baculovirus/Hi5 insect cells
Experiment: TACE kinetic assay, cleavage of internally quenched fluorescent peptide substrate SPDL-3
Format: biochemical
Conditions: TACE inhibition, Table 1001; read-out: Ki Rating

T1 sequence (P78536 215-477 S266A/N452Q limits assumed): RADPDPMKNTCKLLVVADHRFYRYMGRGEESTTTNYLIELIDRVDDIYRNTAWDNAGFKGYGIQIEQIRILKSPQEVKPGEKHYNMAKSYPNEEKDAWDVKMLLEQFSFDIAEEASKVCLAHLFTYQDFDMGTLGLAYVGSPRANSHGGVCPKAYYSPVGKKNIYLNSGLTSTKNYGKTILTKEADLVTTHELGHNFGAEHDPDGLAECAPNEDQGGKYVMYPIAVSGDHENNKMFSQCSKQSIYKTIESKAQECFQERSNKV

Ki, > 100 nM:
O=C1NC(=O)[C@](C#Cc2cc(F)cc(F)c2)(CN2Cc3ccc(OC(F)F)cc3C2=O)N1 [Compound 970]

Ki, 5 to 25 nM:
COc1ccc2c(c1)C(=O)N(C[C@@]1(C#Cc3ccncc3N)NC(=O)NC1=O)C2 [Compound 926]
COc1ccc2c(c1)C(=O)N(C[C@]1(C#Cc3ccccc3C(C)C)NC(=O)NC1=O)C2 [Compound 964]

Ki, < 5 nM:
COc1ccc2c(c1)C(=O)N(C[C@@]1(C#Cc3ccc(C(=O)NC4CC4)o3)NC(=O)NC1=O)C2 [Compound 901]
COc1ccc2c(c1)C(=O)N(C[C@@]1(C#Cc3c[nH]c(C)n3)NC(=O)NC1=O)C2 [Compound 902]
COc1ccc2c(c1)C(=O)N(C[C@@]1(C#Cc3ccc4ncsc4c3)NC(=O)NC1=O)C2 [Compound 903]
COc1ccc2c(c1)C(=O)N(C[C@@]1(C#Cc3ccccc3C(C)C)NC(=O)NC1=O)C2 [Compound 904]
O=C1NC(=O)[C@@](C#Cc2ccc(F)cc2F)(CN2Cc3ccc(OC(F)F)cc3C2=O)N1 [Compound 905]
COc1ccc2c(c1)C(=O)N(C[C@@]1(C#Cc3ccc(F)c(C#N)c3)NC(=O)NC1=O)C2 [Compound 906]
COc1ccc2c(c1)C(=O)N(C[C@@]1(C#Cc3ccc(OC)c(F)c3)NC(=O)NC1=O)C2 [Compound 907]
COc1ccc2c(c1)C(=O)N(C[C@@]1(C#Cc3cc(F)cc(F)c3OC)NC(=O)NC1=O)C2 [Compound 908]
COc1ccc2c(c1)C(=O)N(C[C@@]1(C#Cc3ccc(-c4ccccn4)s3)NC(=O)NC1=O)C2 [Compound 909]
COc1ccc2c(c1)C(=O)N(C[C@@]1(C#Cc3nc4ccccc4s3)NC(=O)NC1=O)C2 [Compound 910]
COc1ccc2c(c1)C(=O)N(C[C@@]1(C#Cc3c(C)n[nH]c3C)NC(=O)NC1=O)C2 [Compound 911]
COc1ccc2c(c1)C(=O)N(C[C@@]1(C#Cc3c(N)ccc4scnc34)NC(=O)NC1=O)C2 [Compound 912]
COc1ccc2c(c1)C(=O)N(C[C@@]1(C#Cc3ncnc4c3ncn4C(C)C)NC(=O)NC1=O)C2 [Compound 913]
COc1ccc2c(c1)C(=O)N(C[C@@]1(C#Cc3ncnc4[nH]cnc34)NC(=O)NC1=O)C2 [Compound 914]
COC(=O)c1ccc(C#C[C@]2(CN3Cc4ccc(OC)cc4C3=O)NC(=O)NC2=O)o1 [Compound 915]
COc1ccc2c(c1)C(=O)N(C[C@@]1(C#Cc3ccc(C(N)=O)o3)NC(=O)NC1=O)C2 [Compound 916]
COc1ccc2c(c1)C(=O)N(C[C@@]1(C#Cc3ccc(C(=O)O)o3)NC(=O)NC1=O)C2 [Compound 917]
COc1ccc2c(c1)C(=O)N(C[C@@]1(C#Cc3cnc(C)n3C)NC(=O)NC1=O)C2 [Compound 918]
CCc1cc(C#C[C@]2(CN3Cc4ccc(OC)cc4C3=O)NC(=O)NC2=O)cc2sc(N)nc12 [Compound 919]
COc1ccc2c(c1)C(=O)N(C[C@@]1(C#Cc3cnccc3N)NC(=O)NC1=O)C2 [Compound 920]
O=C1NC(=O)[C@@](C#Cc2cc(F)cc(F)c2)(CN2Cc3ccc(OC(F)F)cc3C2=O)N1 [Compound 922]
COC(=O)c1ncccc1C#C[C@]1(CN2Cc3ccc(OC)cc3C2=O)NC(=O)NC1=O [Compound 924]
COc1ccc2c(c1)C(=O)N(C[C@@]1(C#Cc3cccnc3C(=O)O)NC(=O)NC1=O)C2 [Compound 925]
COc1ccc2c(c1)C(=O)N(C[C@@]1(C#Cc3ncccc3N)NC(=O)NC1=O)C2 [Compound 928]
COc1ccc2c(c1)C(=O)N(C[C@@]1(C#Cc3cccnc3N)NC(=O)NC1=O)C2 [Compound 930]
COc1ccc2c(c1)C(=O)N(C[C@@]1(C#Cc3cccc(C(C)C)c3)NC(=O)NC1=O)C2 [Compound 931]
COc1ccc2c(c1)C(=O)N(C[C@@]1(C#Cc3cnc4ncccc4c3)NC(=O)NC1=O)C2 [Compound 932]
COc1ccc2c(c1)C(=O)N(C[C@@]1(C#Cc3ccc4ncccc4c3)NC(=O)NC1=O)C2 [Compound 933]
COc1ccc2c(c1)C(=O)N(C[C@@]1(C#Cc3cc(C(F)(F)F)cc(C(F)(F)F)c3)NC(=O)NC1=O)C2 [Compound 934]
COc1ccc2c(c1)C(=O)N(C[C@@]1(C#Cc3ccc(OC(F)F)cc3)NC(=O)NC1=O)C2 [Compound 937]
COc1ccc2c(c1)C(=O)N(C[C@@]1(C#Cc3cc(F)c(Cl)c(F)c3)NC(=O)NC1=O)C2 [Compound 938]
COc1ccc2c(c1)C(=O)N(C[C@@]1(C#Cc3ccc(C#N)c(F)c3)NC(=O)NC1=O)C2 [Compound 939]
COc1ccc2c(c1)C(=O)N(C[C@@]1(C#Cc3ccc4ccn(C)c4n3)NC(=O)NC1=O)C2 [Compound 940]
COc1ccc2c(c1)C(=O)N(C[C@@]1(C#Cc3cnc4c(ccn4C)c3)NC(=O)NC1=O)C2 [Compound 941]
COc1ccc2c(c1)C(=O)N(C[C@@]1(C#Cc3cnc4nc(O)ccc4c3)NC(=O)NC1=O)C2 [Compound 942]
O=C1NC(=O)[C@@](C#Cc2cccnc2)(CN2Cc3ccc(OC(F)F)cc3C2=O)N1 [Compound 943]
COc1ccc2c(c1)C(=O)N(C[C@@]1(C#Cc3cnc4nc(N)c(C#N)cc4c3)NC(=O)NC1=O)C2 [Compound 944]
COc1ccc2c(c1)C(=O)N(C[C@@]1(C#Cc3cccc(S(N)(=O)=O)c3)NC(=O)NC1=O)C2 [Compound 945]
COc1ccc2c(c1)C(=O)N(C[C@@]1(C#Cc3ccc(S(N)(=O)=O)cc3)NC(=O)NC1=O)C2 [Compound 946]
COc1ccc2c(c1)C(=O)N(C[C@@]1(C#Cc3ccccc3S(N)(=O)=O)NC(=O)NC1=O)C2 [Compound 947]
COc1ccc2c(c1)C(=O)N(C[C@@]1(C#Cc3cn(C)c(C)n3)NC(=O)NC1=O)C2 [Compound 948]
COc1ccc2c(c1)C(=O)N(C[C@@]1(C#Cc3cnc4[nH]ccc4c3)NC(=O)NC1=O)C2 [Compound 949]
COc1ccc2c(c1)C(=O)N(C[C@@]1(C#Cc3cc(OC)cc4sc(N)nc34)NC(=O)NC1=O)C2 [Compound 950]
COc1ccc2c(c1)C(=O)N(C[C@@]1(C#Cc3ccc4nccc(OC)c4c3)NC(=O)NC1=O)C2 [Compound 951]
COc1ccc2c(c1)C(=O)N(C[C@@]1(C#Cc3nccc4cc[nH]c34)NC(=O)NC1=O)C2 [Compound 952]
COc1ccc2c(c1)C(=O)N(C[C@@]1(C#Cc3cncc4cc[nH]c34)NC(=O)NC1=O)C2 [Compound 953]
CNC(=O)c1ccc(C#C[C@]2(CN3Cc4ccc(OC)cc4C3=O)NC(=O)NC2=O)o1 [Compound 954]
COc1ccc2c(c1)C(=O)N(C[C@@]1(C#Cc3cncc4cccnc34)NC(=O)NC1=O)C2 [Compound 955]
COC(=O)c1ccc2cncc(C#C[C@]3(CN4Cc5ccc(OC)cc5C4=O)NC(=O)NC3=O)c2n1 [Compound 956]
COc1ccc2c(c1)C(=O)N(C[C@@]1(C#Cc3cncc4ccc(C(N)=O)nc34)NC(=O)NC1=O)C2 [Compound 957]
CNC(=O)c1ccc2cncc(C#C[C@]3(CN4Cc5ccc(OC)cc5C4=O)NC(=O)NC3=O)c2n1 [Compound 958]
COc1ccc2c(c1)C(=O)N(C[C@@]1(C#Cc3cncc4ccc(C(=O)O)nc34)NC(=O)NC1=O)C2 [Compound 959]
COc1ccc2c(c1)C(=O)N(C[C@@]1(C#Cc3cnc4[nH]cnc4c3)NC(=O)NC1=O)C2 [Compound 960]
COc1ccc2c(c1)C(=O)N(C[C@@]1(C#Cc3cnc4[nH]c(C)nc4c3)NC(=O)NC1=O)C2 [Compound 961]
COc1ccc2c(c1)C(=O)N(C[C@@]1(C#Cc3cc4nc[nH]c4nc3C)NC(=O)NC1=O)C2 [Compound 962]
COc1ccc2c(c1)C(=O)N(CC1(C#Cc3ccc4ncsc4c3)NC(=O)NC1=O)C2 (centres unmarked) [Compound 963]
O=C1NC(=O)C(C#Cc2cc(F)cc(F)c2)(CN2Cc3ccc(OC(F)F)cc3C2=O)N1 (centres unmarked) [Compound 969]
O=C1NC(=O)C(C#Cc2ccc(F)cc2F)(CN2Cc3ccc(OC(F)F)cc3C2=O)N1 (centres unmarked) [Compound 971]
COc1ccc2c(c1)C(=O)N(C[C@@]1(C#Cc3ccc(S(=O)(=O)O)cc3)NC(=O)NC1=O)C2 [Compound 973]
COc1ccc2c(c1)C(=O)N(C[C@@]1(C#Cc3ccccc3)NC(=O)NC1=O)C2 [Compound 1002]
O=C1NC(=O)[C@@](C#Cc2cc(F)cc(F)c2)(CN2Cc3ccc(Cl)cc3C2=O)N1 [Compound 1003B]
O=C1NC(=O)[C@@](C#Cc2cccc(F)c2)(CN2Cc3ccc(Cl)cc3C2=O)N1 [Compound 1003C]
COc1ccc2c(c1)C(=O)N(C[C@@]1(C#Cc3cccnc3C)NC(=O)NC1=O)C2 [Compound 1003]
O=C1NC(=O)[C@@](C#Cc2cccnc2)(CN2Cc3ccc(Cl)cc3C2=O)N1 [Compound 1004]

Ki, 25 to 100 nM:
COc1ccc2c(c1)C(=O)N(C[C@]1(C#Cc3nc4ccccc4s3)NC(=O)NC1=O)C2 [Compound 965]
COc1ccc2c(c1)C(=O)N(C[C@]1(C#Cc3cnc4ncccc4c3)NC(=O)NC1=O)C2 [Compound 966]
COc1ccc2c(c1)C(=O)N(C[C@]1(C#Cc3cccc(C(C)C)c3)NC(=O)NC1=O)C2 [Compound 967]
COc1ccc2c(c1)C(=O)N(C[C@]1(C#Cc3ccc4ncccc4c3)NC(=O)NC1=O)C2 [Compound 968]

Same assay, conditions: rhTACEc 70 pM, 30 μM SPDL-3, 90 min pre-incubation at 25° C.; read-out: Ki (nM), TACE inhibitory activity

Ki, 0.12 nM:
COc1ccc2c(c1)C(=O)N(C[C@@]1(C#Cc3ccc4scnc4c3)NC(=O)NC1=O)C2 [Compound 972]

Ki, 0.56 nM:
COc1ccc2c(c1)C(=O)N(C[C@@]1(C#Cc3cccnc3N)NC(=O)NC1=O)C2 [Compound 930]

Ki, 0.11 nM:
COc1ccc2c(c1)C(=O)N(C[C@@]1(C#Cc3cccnc3C)NC(=O)NC1=O)C2 [Compound 1003]
